Earlier results on two molecules are cited in patent US11833140B2, “Compositions and methods for treating, ameliorating and preventing H. pylori infections” (priority 2017, dated 2023).

A value given as a limit tells only on which side of the number the result lay.

For data set [1], the system named is H. pylori (HP). The conditions noted are these: first line therapy, with amoxicillin and clarithromycin.
For data set [2] the following is noted: after a single 20 mg ingestion.
Data set [3] deals with T1, H^+/K^+—ATPAs (Homo sapiens, UniProt P20648).
T1 construct: increase intragastric pH to at least over pH 4.0 within 4 hours of its first administration in humans; host or cells: human stomach in vivo
T1 sequence (P20648 whole entry): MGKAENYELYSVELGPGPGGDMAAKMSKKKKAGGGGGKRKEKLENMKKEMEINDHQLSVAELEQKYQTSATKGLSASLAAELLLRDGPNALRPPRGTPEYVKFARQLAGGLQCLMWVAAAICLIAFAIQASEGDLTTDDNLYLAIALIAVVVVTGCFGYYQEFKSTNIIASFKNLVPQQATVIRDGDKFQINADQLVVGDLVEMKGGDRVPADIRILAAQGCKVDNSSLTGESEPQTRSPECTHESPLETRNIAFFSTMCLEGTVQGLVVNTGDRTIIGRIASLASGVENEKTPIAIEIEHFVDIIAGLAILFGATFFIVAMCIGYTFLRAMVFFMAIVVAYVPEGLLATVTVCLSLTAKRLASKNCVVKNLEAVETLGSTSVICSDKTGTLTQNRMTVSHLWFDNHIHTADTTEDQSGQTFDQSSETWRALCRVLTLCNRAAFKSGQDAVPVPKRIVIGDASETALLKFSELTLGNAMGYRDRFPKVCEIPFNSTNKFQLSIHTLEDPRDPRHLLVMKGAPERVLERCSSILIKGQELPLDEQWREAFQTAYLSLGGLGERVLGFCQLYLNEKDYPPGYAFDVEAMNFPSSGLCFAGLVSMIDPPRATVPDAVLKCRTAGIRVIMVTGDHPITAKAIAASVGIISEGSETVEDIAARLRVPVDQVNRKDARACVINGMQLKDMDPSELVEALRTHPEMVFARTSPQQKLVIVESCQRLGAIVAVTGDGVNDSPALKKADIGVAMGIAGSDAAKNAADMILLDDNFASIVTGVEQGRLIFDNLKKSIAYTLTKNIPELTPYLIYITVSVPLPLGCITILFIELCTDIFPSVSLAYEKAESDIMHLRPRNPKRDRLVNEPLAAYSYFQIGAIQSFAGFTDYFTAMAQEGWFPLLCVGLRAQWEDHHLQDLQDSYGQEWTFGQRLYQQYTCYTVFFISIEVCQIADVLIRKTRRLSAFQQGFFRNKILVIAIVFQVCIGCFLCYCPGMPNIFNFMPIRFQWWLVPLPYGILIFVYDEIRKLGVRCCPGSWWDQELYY
T1 sequence (P51164 whole entry partner): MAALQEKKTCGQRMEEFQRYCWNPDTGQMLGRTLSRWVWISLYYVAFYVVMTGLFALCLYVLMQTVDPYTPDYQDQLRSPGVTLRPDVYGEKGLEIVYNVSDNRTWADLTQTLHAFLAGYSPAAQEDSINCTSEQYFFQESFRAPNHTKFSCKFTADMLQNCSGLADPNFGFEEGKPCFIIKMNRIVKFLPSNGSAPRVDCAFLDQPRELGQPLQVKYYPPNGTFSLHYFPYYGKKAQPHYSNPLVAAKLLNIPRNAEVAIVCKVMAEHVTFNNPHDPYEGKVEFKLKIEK
The conditions noted are these: within 4 hours of its first administration in humans.

The target of data set [4] is CYP3A4 (Homo sapiens, UniProt P08684).
CYP3A4, sequence (P08684 whole entry): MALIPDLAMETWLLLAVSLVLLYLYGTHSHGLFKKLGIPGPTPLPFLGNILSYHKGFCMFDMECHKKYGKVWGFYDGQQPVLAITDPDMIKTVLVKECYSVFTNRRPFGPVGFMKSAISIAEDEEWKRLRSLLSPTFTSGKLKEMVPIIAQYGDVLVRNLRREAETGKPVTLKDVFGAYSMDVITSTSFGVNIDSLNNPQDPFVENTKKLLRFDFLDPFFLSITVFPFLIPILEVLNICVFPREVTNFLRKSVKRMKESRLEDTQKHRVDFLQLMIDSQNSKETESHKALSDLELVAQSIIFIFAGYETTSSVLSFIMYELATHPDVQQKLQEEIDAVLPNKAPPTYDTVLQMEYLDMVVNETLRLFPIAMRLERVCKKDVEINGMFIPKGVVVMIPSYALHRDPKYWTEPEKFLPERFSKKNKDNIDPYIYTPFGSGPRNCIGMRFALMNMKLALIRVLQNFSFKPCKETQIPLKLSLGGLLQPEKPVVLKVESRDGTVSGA
Data set [5] has as its system CYP2C19.
The conditions of data set [6]: compared with conventional PPI's.

With `Cc1c(OCC(F)(F)F)ccnc1C[S+]([O-])c1nc2ccccc2[nH]1` (stereo not drawn) [lansoprazole], in data set [1], the “H. pylori (HP) eradication rate” value is listed as 76%.

`CNCc1cc(-c2ccccc2F)n(S(=O)(=O)c2cccnc2)c1.O=C(O)/C=C/C(=O)O` [vonoprazan, 1-(5-(2-fluorophenyl)-1-(pyridin-3-ylsulfonyl)-1H-pyrrol-3-yl)-N-methylmethanamine fumarate]: the plasma half-life in data set [2] was 7 h. Also, the “intragastric pH” value in data set [3] is given as more than 4.0 pH. Moreover, the “metabolised by” value in data set [4] is on record as “by the CYP3A4 system”. Moreover, the “metabolised through the hepatic CYP2C19 haplotypes” value in data set [5] is listed as “not metabolised”. Besides, in data set [6], the “stability at neutral pH” value is “more stable”.
